From PubChem BioAssay AID330 (DTP/NCI, 2004) come the findings set out here.

Where “and” joins values, the source holds several entries; their conditions need not be identical. Equal entries are not always repeated. Inconclusive results and toxic doses are left out.

The assay deals with P388 leukemia ip, CD2F1 mice, survival T/C. Description: NCI In Vivo Anticancer Drug Screen. Data for tumor model P388 Leukemia (intraperitoneal) in CD2F1 (CDF1) mice. Conditions: endpoint: median survival time, higher = longer survival. Summed up: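 Mice carrying the transplanted tumor received test compound or vehicle. Survival was recorded in each group, and the value is the treated-group measurement divided by that of the vehicle-treated control group.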

The mark [1] stands for this setting: dose: 60.0 mg/kg/injection, schedule: Q01DX005 (ip), vehicle: saline with Tween-80.
Where [2] appears, read: dose: 120.0 mg/kg/injection, schedule: Q01DX005 (ip), vehicle: saline with Tween-80.
The mark [3] stands for this setting: dose: 240.0 mg/kg/injection, schedule: Q01DX005 (ip), vehicle: saline with Tween-80.
[4] abbreviates: dose: 6.25 mg/kg/injection, schedule: Q01DX009 (ip), vehicle: saline with Tween-80.
The mark [5] stands for this setting: dose: 12.5 mg/kg/injection, schedule: Q01DX009 (ip), vehicle: saline with Tween-80.
[6] abbreviates: dose: 120.0 mg/kg/injection, schedule: Q01DX005 (ip), vehicle: Klucel (hydroxypropylcellulose) (HPC).
Setting [7] is: dose: 240.0 mg/kg/injection, schedule: Q01DX005 (ip), vehicle: Klucel (hydroxypropylcellulose) (HPC).
Where [8] appears, read: dose: 60.0 mg/kg/injection, schedule: Q01DX005 (ip), vehicle: Klucel (hydroxypropylcellulose) (HPC).
Setting [9] is: dose: 12.5 mg/kg/injection, schedule: Q01DX009 (ip), vehicle: saline.
Where [10] appears, read: dose: 25.0 mg/kg/injection, schedule: Q01DX009 (ip), vehicle: saline.
Where [11] appears, read: dose: 50.0 mg/kg/injection, schedule: Q01DX009 (ip), vehicle: saline.
Setting [12] is: dose: 100.0 mg/kg/injection, schedule: Q01DX009 (ip), vehicle: saline.

With `Cc1c2oc3c(C)ccc(C(=O)NC(C(=O)NC(C(=O)NN)C(C)C)C(C)O)c3nc-2c(C(=O)NC(C(=O)NC(C(=O)NN)C(C)C)C(C)O)c(N)c1=O` (centres undefined), the T/C runs as follows: (dose: 0.05 mg/kg/injection, schedule: Q01DX009 (ip), vehicle: water) 106 % of control; (dose: 0.1 mg/kg/injection, schedule: Q01DX009 (ip), vehicle: water) 107 % of control; (dose: 0.2 mg/kg/injection, schedule: Q01DX009 (ip), vehicle: water) 97 % of control; (dose: 0.4 mg/kg/injection, schedule: Q01DX009 (ip), vehicle: water) 101 % of control; (dose: 0.8 mg/kg/injection, schedule: Q01DX009 (ip), vehicle: water) 101 % of control; (dose: 1.6 mg/kg/injection, schedule: Q01DX009 (ip), vehicle: water) 108 % of control and 110 % of control. Besides, the T/C by setting is: (dose: 3.2 mg/kg/injection, schedule: Q01DX009 (ip), vehicle: water) 99 % of control; (dose: 6.4 mg/kg/injection, schedule: Q01DX009 (ip), vehicle: water) 99 % of control; (dose: 12.8 mg/kg/injection, schedule: Q01DX009 (ip), vehicle: water) 97 % of control.

As for `C1CNCCNCCNCCN1`, the T/C is, setting by setting: (dose: 12.5 mg/kg/injection, schedule: Q01DX009 (ip), vehicle: water) 101 % of control; (dose: 25.0 mg/kg/injection, schedule: Q01DX009 (ip), vehicle: water) 96 % of control; (dose: 50.0 mg/kg/injection, schedule: Q01DX009 (ip), vehicle: water) 100 % of control; (dose: 100.0 mg/kg/injection, schedule: Q01DX009 (ip), vehicle: water) 101 % of control.

`COC12CC(=O)C(C(C)=O)=C(O)C1(C)c1c(OC(C)=O)c(C)c(O)c(C(C)=O)c1O2` (centres undefined): the T/C was 106 % of control (dose: 25.0 mg/kg/injection, schedule: Q01DX009 (ip), vehicle: gum acacia); 99 % of control and 104 % of control and 114 % of control (dose: 50.0 mg/kg/injection, schedule: Q01DX009 (ip), vehicle: gum acacia); 124 % of control (dose: 100.0 mg/kg/injection, schedule: Q01DX009 (ip), vehicle: gum acacia).

Take `NCCCn1[nH]c(=O)c2ncccc2c1=O`: the T/C is, setting by setting: under setting [1], 110 % of control; under setting [2], 112 % of control; under setting [3], 102 % of control.

Turning to `Cc1[nH]c(=O)nc(Nc2ccc(Cl)cc2)c1C(=O)N1CCN(CCO)CC1`, the T/C is 93 % of control under setting [1]; 90 % of control and 93 % of control under setting [2]; 102 % of control and 93 % of control under setting [3].

For the compound `CC1=C(O)C(=O)C(C)=C(O)C1=O`, the T/C is, setting by setting: (dose: 12.5 mg/kg/injection, schedule: Q01DX001 (ip), vehicle: Klucel (hydroxypropylcellulose) (HPC)) 112 % of control; (dose: 25.0 mg/kg/injection, schedule: Q01DX001 (ip), vehicle: Klucel (hydroxypropylcellulose) (HPC)) 112 % of control; (dose: 50.0 mg/kg/injection, schedule: Q01DX001 (ip), vehicle: Klucel (hydroxypropylcellulose) (HPC)) 111 % of control.

In the case of `CCc1ccc(C2=C(O)C(=O)C(c3ccc(CC)cc3)=C(O)C2=O)cc1`, the T/C reads like this: under setting [4], 100 % of control; under setting [5], 110 % of control; (dose: 33.0 mg/kg/injection, schedule: Q01DX009 (ip), vehicle: saline with Tween-80) 163 % of control.

Regarding `Nc1ccccc1S(=O)(=O)Nc1c(N)nc(SCC(=O)O)[nH]c1=O`, the T/C (dose: 15.0 mg/kg/injection, schedule: Q01DX005 (ip), vehicle: saline with Tween-80) is 98 % of control and 101 % of control; the T/C (dose: 30.0 mg/kg/injection, schedule: Q01DX005 (ip), vehicle: saline with Tween-80) is 100 % of control and 95 % of control; the T/C under setting [1] is 100 % of control and 95 % of control; the T/C under setting [6] is 87 % of control and 96 % of control; the T/C under setting [2] is 99 % of control and 98 % of control; the T/C under setting [7] is 98 % of control and 93 % of control.

Turning to `C=CC1(C)CCOC(=O)C1` (centres undefined), the T/C was 94 % of control under setting [1] and 97 % of control under setting [2].

With `Cc1cc2c(c3c1C(C)CCC3=O)C(C)(C)CC2(C)C` (centres undefined), the T/C runs as follows: (dose: 50.0 mg/kg/injection, schedule: Q01DX005 (ip), vehicle: saline + Tween-80 + alcohol) 101 % of control; (dose: 100.0 mg/kg/injection, schedule: Q01DX005 (ip), vehicle: saline + Tween-80 + alcohol) 108 % of control; (dose: 200.0 mg/kg/injection, schedule: Q01DX005 (ip), vehicle: saline + Tween-80 + alcohol) 104 % of control.

`CN=C(N)N/N=C(\C)c1ccc(Cl)c(Cl)c1`: the T/C reads like this: (dose: 25.0 mg/kg/injection, schedule: Q04DX002 (ip), vehicle: saline with Tween-80) 100 % of control; (dose: 50.0 mg/kg/injection, schedule: Q04DX002 (ip), vehicle: saline with Tween-80) 99 % of control.

With `O/N=C/C(=NCc1ccccn1)NO`, the T/C reads like this: under setting [8], 107 % of control; under setting [6], 103 % of control; under setting [7], 103 % of control.

Consider `CN1CCC(=C2c3ccccc3CCc3sccc32)CC1`, for which the T/C is 103 % of control under setting [9]; 104 % of control under setting [10]; 101 % of control and 103 % of control under setting [11]; 108 % of control under setting [12].

For the compound `Cn1c(=O)c2c(nc([N+](=O)[O-])n2C)n(C)c1=O`, the T/C is, setting by setting: (dose: 100.0 mg/kg/injection, schedule: Q04DX003 (ip), vehicle: saline) 104 % of control; (dose: 200.0 mg/kg/injection, schedule: Q04DX003 (ip), vehicle: saline) 100 % of control.

With `NC(N)=N/N=C/c1ccc(Cl)cc1Cl`, the T/C is 104 % of control under setting [10] and 106 % of control under setting [11].

Regarding `N#C/C=C/c1cccc([N+](=O)[O-])c1`, the T/C (dose: 100.0 mg/kg/injection, schedule: Q01DX001 (ip), vehicle: saline with Tween-80) is 100 % of control; the T/C (dose: 200.0 mg/kg/injection, schedule: Q01DX001 (ip), vehicle: saline with Tween-80) was 100 % of control; the T/C (dose: 400.0 mg/kg/injection, schedule: Q01DX001 (ip), vehicle: saline with Tween-80) was 100 % of control.

Consider `CC1=CCC(CC2CO2)C1(C)C` (centres undefined), for which the T/C is 101 % of control under setting [11] and 108 % of control under setting [12].

In the case of `COC1(OC)C2(Cl)C(Cl)=C(Cl)C1(Cl)C1CCCCCC12` (centres undefined), the T/C is, setting by setting: under setting [1], 97 % of control; under setting [2], 97 % of control; under setting [3], 101 % of control.

With `CC(=N)c1ccc(C)cc1`, the T/C runs as follows: under setting [4], 90 % of control; (dose: 6.25 mg/kg/injection, schedule: Q04DX003 (ip), vehicle: saline with Tween-80) 100 % of control; under setting [5], 90 % of control; (dose: 12.5 mg/kg/injection, schedule: Q04DX003 (ip), vehicle: saline with Tween-80) 95 % of control; (dose: 25.0 mg/kg/injection, schedule: Q01DX009 (ip), vehicle: saline with Tween-80) 104 % of control; (dose: 25.0 mg/kg/injection, schedule: Q04DX003 (ip), vehicle: saline with Tween-80) 100 % of control.

Regarding `CN(C)c1ccc(/C=N/Nc2nnc3c4ccccc4n(C)c3n2)cc1`, the T/C was 91 % of control (dose: 12.5 mg/kg/injection, schedule: Q01DX005 (ip), vehicle: saline with Tween-80) and 97 % of control (dose: 25.0 mg/kg/injection, schedule: Q01DX005 (ip), vehicle: saline with Tween-80).

Regarding `CC1(C)CC(=O)C([Se]C2=C(O)CC(C)(C)CC2=O)=C(O)C1`, the T/C reads like this: (dose: 6.25 mg/kg/injection, schedule: Q01DX009 (ip), vehicle: saline) 101 % of control; under setting [9], 104 % of control; under setting [10], 111 % of control.

With `CCOC(=O)c1sc(SC)c2c(N)nc(C)nc12`, the T/C reads like this: (dose: 50.0 mg/kg/injection, schedule: Q01DX005 (ip), vehicle: saline with Tween-80) 98 % of control; (dose: 100.0 mg/kg/injection, schedule: Q01DX005 (ip), vehicle: saline with Tween-80) 94 % of control; (dose: 200.0 mg/kg/injection, schedule: Q01DX005 (ip), vehicle: saline with Tween-80) 95 % of control.

For `N/C(=N\C(=O)OCc1ccccc1)N(CCCC(NC(=O)OCc1ccccc1)C(=O)O)C(=O)OCc1ccccc1` (centres undefined), the T/C by setting is: under setting [1], 104 % of control; under setting [2], 87 % of control; under setting [3], 88 % of control.

For `[Cl][Cu][Cl].c1ccc2c(c1)Sc1ccccc1[N+]2=c1ccc2nc3ccccc3sc-2c1`, the T/C under setting [8] was 87 % of control and the T/C under setting [6] is 95 % of control.
